From patent US7906620B2, “Tumor associated antigen, peptides thereof, and use of same as anti-tumor vaccines” (Yeda Research and Development Co. Ltd., priority 2002, dated 2011)

Tests used:
[1] = tested on: RMAS-HHD-B7.1 target cells; assay: Immunogenicity in HHD mice after immunization with dendritic cells pulsed with peptide pools; format: in vivo; conditions: DCs pulsed with pools of 2-4 peptides; effector-to-target ratio 25:1
Method: FIGS. 13A and 13B are graphs showing immunogenicity of PAP- or STEAP-derived peptides in HHD mice. The mice were immunized i.v. one time with 1×10^6 peptide-loaded syngeneic dendritic cells (DCs). The DCs were loaded separately with individual peptides, washed and pooled before immunization. Spleens were removed on day 10, and splenocytes were re-stimulated in vitro by 100 μM PAP-derived (FIG. 13A) or STEAP-derived (FIG. 13B) peptides in OPTIMEM for 2 h at 37° C., 5% CO2, followed by restimulation of lymphocytes for 4 more days in RPMI-HEPES, as described. CTL assays were performed on day 5 with individual PAP-, STEAP-derived peptides loaded on RMAS-HHD-B7.1 as targets. Non-relevant HIV derived peptide-loaded RMAS-HHD-B7.1 cells were used as negative controls. The effector-to-target ratio of 25:1 is shown.
(§1) The immunogenicity of the peptides, namely their potential to induce T cell responses, was subsequently examined in an in vivo model. A strain of β2 microglobulin (β2m) HLA-A2.1 Monochain Transgenic, H-2D^b−/−Xβ2m^−/− double knockout mice (HHD mice) was used. Upon vaccination of these mice, a repertoire of human HLA-A2.1 restricted CTLs is produced. The lysis patterns of each of the individual peptides loaded on target cells were first evaluated following immunization with syngeneic dendritic cells pulsed with pools of 2-4 synthetic peptides derived from each examined protein.

EL-4-HHD target cells = assay: Immunogenicity in HHD mice after immunization with single peptide-loaded RMAS-HHD-B7.1 cells; format: in vivo; conditions: single peptide immunization i.p. three times; E:T 100:1 to 12.5:1
Method: FIGS. 14A and 14B are graphs showing immunogenicity of PAP-3 (FIG. 14A) and STEAP-3 (FIG. 14B) peptides in HHD mice. Mice immunized i.p. three times at 7-day intervals, with 2×10^6 irradiated (5000 rad) were single peptide-loaded (PAP-3 for FIG. 14A, STEAP-3 for FIG. 14B) TAP-2 deficient RMAS-HHD-B7.1 cells. Spleens were removed on day 10, and splenocytes were restimulated in vitro by 100 μM PAP-3 or STEAP-3 peptides in OPTIMEM for 2 h at 37° C., 5% CO2, followed by restimulation of lymphocytes for 4 more days in RPMI-HEPES, as described. CTL assays were performed on day 5 with PAP-3 or STEAP-3 loaded on EL4-HHD as targets. Unloaded EL4-HHD or non-relevant HIV derived peptide-loaded EL4-HHD cells were used as negative controls. The effector-to-target ratios of 100:1; 50:1; 25:1; 12.5:1 are shown.
as §1

[2] = tested on: HLA-A2-peptide specific CD8+ cells; assay: MHC-peptide tetramer monitoring of HLA-A2-peptide specific CD8+ cells; format: cell-based, human; conditions: stimulated PBMC, MHC-peptide tetramers
PC3-HHD tumors = assay: Adoptive transfer of anti-peptide CTL to CD1 nude mice bearing PC3-HHD tumors; format: in vivo; conditions: for complete rejection of tumors: local injection day 7, PAP-3: 35×10^6 lymphocytes (11×10^6 CD8+), STEAP-3: 50×10^6 (3×10^6 CD8+), IL-2; for tumor growth in the other mice: same groups as complete rejection
Excerpt: FIGS. 19A and 19B are graphs showing that adoptively transferred anti-peptide CTL retard tumor growth. HHD derived anti-PAP3 (FIG. 19A) or STEAP-3 (FIG. 19B) were stimulated in vitro and transferred to CD1 nude mice bearing 7 day PC3-HHD tumors (expressing PAP and STEAP) as described. Tumor growth was followed for 38 days.
HHD mice were immunized i.p. 6 times (twice at week) with 10^6 syngeneic dendritic cells pulsed with either PAP-3, STEAP-3 or irrelevant (tyrosinase-derived, HLA-A2.1 binding) peptides. Spleens were removed on day 10, and splenocytes were restimulated in vitro by 100 μM of either PAP-3 or STEAP-3 peptides in OPTIMEM for 2 h at 37° C., 5% CO2, followed by restimulation of lymphocytes for 4 more days in lymphocyte medium (RPMI-1640 supplemented with 25 mM HEPES, 10% heat-inactivated FCS, 0.1 mM non-essential amino acids, 1 mM sodium pyruvate, 2 mM. L-glutamine, 40 microg/ml garamycin and 5×10^−5 M 2-mercaptoethanol). Total lymphocytes were suspended at 10^6/ml and activated with plate-bound anti-CD3 mAb (145-2C11) for 72 h at 37° C. in 5% CO2 in 24-well plates. Activated cells were resuspended at a concentration of 3×10^5/ml lymphocyte medium with IL-2 (100 U/ml) for 3 days, then diluted 1:3 in fresh medium with IL-2 for an additional 4 days. Lymphocytes were harvested, samples were incubated with anti-CD4, anti-CD8 or isotype control mAb (all obtained from Catalog, USA), and analyzed using CellQuest software. Seven to nine CD1 nude mice per group received 4 Gy total body irradiation from a 137CS source, followed by s.c. inoculation with 5×10^6 PC3-HHD13 cells in Matrigel (BD PharMingen, San Diego, Calif.) to initiate tumors. Seven days later, mice were injected locally with 35×10^6 PAP-3 or tyrosinase specific lymphocytes (11×10^6 were CD8+), 50×10^6 STEAP-3 specific lymphocytes (3×10^6 were CD8+) or PBS. IL-2 (1000 U) was injected twice a day for five consecutive days. Tumor size was measured 3 times per week.

Sequence | lysis of peptide-loaded RMAS-HHD-B7.1 target cells [1] | lysis of peptide-loaded EL-4-HHD target cells (EL-4-HHD target cells) | Levels of HLA-A2-peptide specific CD8+ cells [2] | complete rejection of tumors (PC3-HHD tumors) | tumor growth in the other mice (PC3-HHD tumors)
LLLGTIHAL (listed as Homo sapiens) [STEAP-3, STEAP start position 262] | significant lysis | remarkable and dose-dependent lysis | 0.76% | 2/9 | retarded growth
ILLWQPIPV (listed as Homo sapiens) [PAP-3, PAP start position 135] | significant lysis | remarkable and dose-dependent lysis | 1.7% | 4/8 | retarded growth
